From US12012409B2, “Bicyclic heterocycles as FGFR inhibitors” (Incyte Corporation, priority 2020, dated 2024)

Assays:
Format in all cases: biochemical
Conditions in all cases: wild-type un-phosphorylated protein; pre-incubated for 4 hours; ATP near or below Km
[1] = target: wild-type un-phosphorylated FGFR2 (Homo sapiens, UniProt P21802); assay: FGFR Enzymatic Assay (FRET peptide phosphorylation), FGFR2
Method: (§1) The inhibitor potency of the exemplified compounds was determined in an enzyme discontinuous assay that measures peptide phosphorylation using FRET measurements to detect product formation. Inhibitors were serially diluted in DMSO and a volume of 0.2 μL was transferred to the wells of a 384-well plate. […] Appropriate controls (enzyme blank and enzyme with no inhibitor) were included on the plate. […] The ATP Km values were pre-determined in a separate series of experiments. […] The plate was allowed to equilibrate for ˜10 minutes at ambient temperature before scanning on a PheraStar plate reader (BMG Labtech) instrument.
(§2) Either GraphPad prism or XLfit was used to analyze the data. The IC50 values were derived by fitting the data to a four parameter logistic equation producing a sigmoidal dose-response curve with a variable Hill coefficient. Prism equation: Y=Bottom+(Top−Bottom)/(1+10^((LogIC50−X)*Hill slope)); XLfit equation: Y=(A+((B−A)/(1+((X/C)^D)))) where X is the logarithm of inhibitor concentration and Y is the response.
The data in Table 1 was measured in wild-type un-phosphorylated FGFR1, FGFR2, FGFR3 and FGFR4 protein.

[2] = target: wild-type un-phosphorylated FGFR1 (Homo sapiens, UniProt P11362); assay: FGFR Enzymatic Assay (FRET peptide phosphorylation), FGFR1
Method: as §1, §2

[3] = target: wild-type un-phosphorylated FGFR3 (Homo sapiens, UniProt P22607); assay: FGFR Enzymatic Assay (FRET peptide phosphorylation), FGFR3
Method: as §1, §2

Chain of wild-type un-phosphorylated FGFR1 (P11362 22-822): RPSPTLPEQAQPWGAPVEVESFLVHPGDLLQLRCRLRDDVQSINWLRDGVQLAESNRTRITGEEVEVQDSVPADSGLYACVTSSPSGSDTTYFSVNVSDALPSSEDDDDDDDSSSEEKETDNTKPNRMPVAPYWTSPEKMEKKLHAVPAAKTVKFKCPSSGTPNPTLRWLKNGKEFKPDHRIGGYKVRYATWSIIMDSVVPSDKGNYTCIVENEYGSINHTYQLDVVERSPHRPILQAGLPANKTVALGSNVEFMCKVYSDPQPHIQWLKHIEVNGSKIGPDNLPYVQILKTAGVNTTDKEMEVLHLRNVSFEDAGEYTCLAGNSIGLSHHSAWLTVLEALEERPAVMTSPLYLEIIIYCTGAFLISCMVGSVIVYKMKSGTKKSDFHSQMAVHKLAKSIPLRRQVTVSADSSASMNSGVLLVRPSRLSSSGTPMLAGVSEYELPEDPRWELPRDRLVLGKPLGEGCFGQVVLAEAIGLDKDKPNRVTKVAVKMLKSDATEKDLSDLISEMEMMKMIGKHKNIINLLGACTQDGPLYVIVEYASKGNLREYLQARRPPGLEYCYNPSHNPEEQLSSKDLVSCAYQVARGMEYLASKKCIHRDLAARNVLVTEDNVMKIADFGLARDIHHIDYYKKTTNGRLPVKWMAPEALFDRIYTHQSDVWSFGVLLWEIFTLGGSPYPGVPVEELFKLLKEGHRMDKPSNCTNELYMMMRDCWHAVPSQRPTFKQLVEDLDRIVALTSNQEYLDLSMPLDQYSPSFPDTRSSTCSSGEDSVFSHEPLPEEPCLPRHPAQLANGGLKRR
Chain of wild-type un-phosphorylated FGFR3 (P22607 23-806): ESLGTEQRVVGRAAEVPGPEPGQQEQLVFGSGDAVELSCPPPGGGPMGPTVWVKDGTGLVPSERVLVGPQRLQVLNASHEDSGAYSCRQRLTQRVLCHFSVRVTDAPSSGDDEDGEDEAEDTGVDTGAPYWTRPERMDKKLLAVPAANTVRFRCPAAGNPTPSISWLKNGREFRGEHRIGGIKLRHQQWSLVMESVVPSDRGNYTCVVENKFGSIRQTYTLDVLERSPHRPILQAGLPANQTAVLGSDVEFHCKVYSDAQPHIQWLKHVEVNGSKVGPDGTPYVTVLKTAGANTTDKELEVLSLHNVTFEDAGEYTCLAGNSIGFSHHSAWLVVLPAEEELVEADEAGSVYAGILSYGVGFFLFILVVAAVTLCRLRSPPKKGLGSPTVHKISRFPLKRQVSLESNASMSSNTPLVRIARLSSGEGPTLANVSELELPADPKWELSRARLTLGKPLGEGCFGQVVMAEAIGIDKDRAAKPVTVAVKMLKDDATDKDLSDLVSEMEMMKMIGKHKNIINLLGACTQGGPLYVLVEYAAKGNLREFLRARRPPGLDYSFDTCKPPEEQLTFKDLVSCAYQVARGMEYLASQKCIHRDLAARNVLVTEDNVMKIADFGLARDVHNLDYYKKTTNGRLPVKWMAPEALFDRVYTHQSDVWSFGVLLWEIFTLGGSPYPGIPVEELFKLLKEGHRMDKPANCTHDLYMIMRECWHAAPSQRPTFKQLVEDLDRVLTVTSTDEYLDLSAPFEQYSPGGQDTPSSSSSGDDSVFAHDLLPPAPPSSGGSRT
Chain of wild-type un-phosphorylated FGFR2 (P21802 22-821): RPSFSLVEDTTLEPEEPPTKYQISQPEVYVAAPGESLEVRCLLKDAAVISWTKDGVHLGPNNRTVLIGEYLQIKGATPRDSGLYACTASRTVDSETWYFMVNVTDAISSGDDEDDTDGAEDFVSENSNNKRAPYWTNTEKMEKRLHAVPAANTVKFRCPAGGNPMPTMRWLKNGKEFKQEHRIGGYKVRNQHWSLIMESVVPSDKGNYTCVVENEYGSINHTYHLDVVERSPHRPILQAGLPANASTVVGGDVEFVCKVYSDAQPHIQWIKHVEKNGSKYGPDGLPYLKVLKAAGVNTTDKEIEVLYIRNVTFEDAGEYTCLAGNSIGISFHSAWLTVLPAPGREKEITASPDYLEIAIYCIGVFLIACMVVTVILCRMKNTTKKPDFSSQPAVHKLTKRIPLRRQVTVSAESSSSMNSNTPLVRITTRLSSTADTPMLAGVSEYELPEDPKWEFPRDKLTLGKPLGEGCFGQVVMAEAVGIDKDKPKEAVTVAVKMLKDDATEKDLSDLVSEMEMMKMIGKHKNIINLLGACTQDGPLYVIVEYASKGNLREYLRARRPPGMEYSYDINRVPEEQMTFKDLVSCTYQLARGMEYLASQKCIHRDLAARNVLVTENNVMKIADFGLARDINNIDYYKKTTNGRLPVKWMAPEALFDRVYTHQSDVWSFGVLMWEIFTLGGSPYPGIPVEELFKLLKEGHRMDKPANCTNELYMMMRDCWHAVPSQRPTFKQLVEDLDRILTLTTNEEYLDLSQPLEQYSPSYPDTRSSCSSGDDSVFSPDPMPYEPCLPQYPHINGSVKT

Structure (SMILES)	IC50 [1] [nM]	IC50 [2] [nM]	IC50 [3] [nM]
CNC(=O)c1cncc(-c2cnc3cc(-c4cnn(C)c4)c(OCC(F)F)nn23)c1 [Example 50, 5-(6-(2,2-Difluoroethoxy)-7-(1-methyl-1H-pyrazol-4-yl)imidazo[1,2-b]pyridazin-3-yl)-N-methylnicotinamide]	–	≥ 400	10 to 100
COc1nn2c(-c3cc(C(=O)NCC(F)(F)F)ccc3F)cnc2cc1-c1cnn(C)c1 [Example 14, 4-Fluoro-3-(6-methoxy-7-(1-methyl-1H-pyrazol-4-yl)imidazo[1,2-b]pyridazin-3-yl)-N-(2,2,2-trifluoroethyl)benzamide]	–	10 to 100	10 to 100
CNC(=O)c1ccc(C#N)c(-c2cnc3cc(-c4cnn(C)c4)c(OC)nn23)c1 [Example 13, 4-Cyano-3-(6-methoxy-7-(1-methyl-1H-pyrazol-4-yl)imidazo[1,2-b]pyridazin-3-yl)-N-methylbenzamide]	–	≥ 400	≥ 400
COc1nn2c(-c3cccc(N4CCOCC4)c3)cnc2cc1-c1cnn(C)c1 [Example 6, 4-(3-(6-Methoxy-7-(1-methyl-1H-pyrazol-4-yl)imidazo[1,2-b]pyridazin-3-yl)phenyl)morpholine]	–	100 to 400	100 to 400
CNC(=O)c1cncc(-c2cnc3cc(-c4cnn(C)c4)c(OC)nn23)c1 [Example 4, 5-(6-Methoxy-7-(1-methyl-1H-pyrazol-4-yl)imidazo[1,2-b]pyridazin-3-yl)-N-methylnicotinamide]	100 to 400	–	–
CNS(=O)(=O)c1cccc(-c2cnc3cc(-c4cnn(C)c4)c(OC)nn23)c1 [Example 8, 3-(6-Methoxy-7-(1-methyl-1H-pyrazol-4-yl)imidazo[1,2-b]pyridazin-3-yl)-N-methylbenzenesulfonamide]	–	< 10	< 10
COc1nn2c(-c3cccc(NC(C)=O)c3)cnc2cc1-c1cnn(C)c1 [Example 10, N-(3-(6-Methoxy-7-(1-methyl-1H-pyrazol-4-yl)imidazo[1,2-b]pyridazin-3-yl)phenyl)acetamide]	–	< 10	< 10
Cn1cc(-c2cc3ncc(-c4ccc5cnn(C)c5c4)n3nc2OC2CCOC2)cn1 (stereo not drawn) [Example 65, 3-(1-Methyl-1H-indazol-6-yl)-7-(1-methyl-1H-pyrazol-4-yl)-6-((tetrahydrofuran-3-yl)oxy)imidazo[1,2-b]pyridazine]	–	≥ 400	100 to 400
Cn1cc(-c2cc3ncc(-c4ccc5oncc5c4)n3nc2OC2CCOC2)cn1 (stereo not drawn) [Example 66, 5-(7-(1-Methyl-1H-pyrazol-4-yl)-6-((tetrahydrofuran-3-yl)oxy)imidazo[1,2-b]pyridazin-3-yl)benzo[d]isoxazole]	–	100 to 400	10 to 100
COc1nn2c(-c3cccc(CC#N)c3)cnc2cc1-c1cnn(C)c1 [Example 7, 2-(3-(6-Methoxy-7-(1-methyl-1H-pyrazol-4-yl)imidazo[1,2-b]pyridazin-3-yl)phenyl)acetonitrile]	–	10 to 100	10 to 100
CNC(=O)c1cc(-c2ccc(F)cc2F)cc(-c2cnc3cc(-c4cnn(C)c4)c(OC)nn23)c1 [Example 11, 2′,4′-Difluoro-5-(6-methoxy-7-(1-methyl-1H-pyrazol-4-yl)imidazo[1,2-b]pyridazin-3-yl)-N-methyl-[1,1′-biphenyl]-3-carboxamide]	–	10 to 100	< 10
COc1nn2c(-c3cccc(C(C)(C)O)c3)cnc2cc1-c1cnn(C)c1 [Example 9, 2-(3-(6-Methoxy-7-(1-methyl-1H-pyrazol-4-yl)imidazo[1,2-b]pyridazin-3-yl)phenyl)propan-2-ol]	–	10 to 100	10 to 100
CNC(=O)c1ccc(OC)c(-c2cnc3cc(-c4cnn(C)c4)c(OC)nn23)c1 [Example 12, 4-Methoxy-3-(6-methoxy-7-(1-methyl-1H-pyrazol-4-yl)imidazo[1,2-b]pyridazin-3-yl)-N-methylbenzamide]	–	≥ 400	≥ 400
COc1nn2c(-c3ccc4ncccc4c3)cnc2cc1-c1cnn(C)c1 [Example 5, 6-(6-Methoxy-7-(1-methyl-1H-pyrazol-4-yl)imidazo[1,2-b]pyridazin-3-yl)quinoline]	–	100 to 400	100 to 400
COc1nn2c(-c3cncc(C)c3)cnc2cc1-c1cnn(C)c1 [Example 3, 6-Methoxy-7-(1-methyl-1H-pyrazol-4-yl)-3-(5-methylpyridin-3-yl)imidazo[1,2-b]pyridazine]	–	≥ 400	100 to 400
CNC(=O)c1cccc(-c2cnc3cc(-c4cnn(C)c4)c(OC4CC(C#N)C4)nn23)c1 (stereo not drawn) [Example 56, 3-(6-(3-Cyanocyclobutoxy)-7-(1-methyl-1H-pyrazol-4-yl)imidazo[1,2-b]pyridazin-3-yl)-N-methylbenzamide]	–	100 to 400	100 to 400
Cn1cc(-c2cc3ncc(-c4cccc(-n5cccn5)c4)n3nc2OC2COC2)cn1 [Example 61, 3-(3-(1H-Pyrazol-1-yl)phenyl)-7-(1-methyl-1H-pyrazol-4-yl)-6-(oxetan-3-yloxy)imidazo[1,2-b]pyridazine]	–	10 to 100	10 to 100

The remaining lines, values ahead:

IC50 [1] [nM]	IC50 [2] [nM]	IC50 [3] [nM]	Structure (SMILES)
< 10	10 to 100	< 10	CNC(=O)c1cc(F)c(F)c(-c2cnc3cc(-c4cnn(C5COC5)c4)c(O[C@H]4CCOC4)nn23)c1 [Example 23, (S)-3,4-Difluoro-N-methyl-5-(7-(1-(oxetan-3-yl)-1H-pyrazol-4-yl)-6-((tetrahydrofuran-3-yl)oxy)imidazo[1,2-b]pyridazin-3-yl)benzamide]
< 10	–	–	CNC(=O)c1cc(-c2cnc3cc(-c4cnn(C)c4)c(O[C@H]4CCOC4)nn23)c(F)c(C(F)F)c1 [Example 41, (S)-3-(Difluoromethyl)-4-fluoro-N-methyl-5-(7-(1-methyl-1H-pyrazol-4-yl)-6-((tetrahydrofuran-3-yl)oxy)imidazo[1,2-b]pyridazin-3-yl)benzamide]
–	10 to 100	< 10	CNC(=O)c1cncc(-c2cnc3cc(-c4cnn(C)c4)c(OC4COC4)nn23)c1 [Example 15, N-Methyl-5-(7-(1-methyl-1H-pyrazol-4-yl)-6-(oxetan-3-yloxy)imidazo[1,2-b]pyridazin-3-yl)nicotinamide]
–	≥ 400	10 to 100	CNC(=O)c1cc(F)c(F)c(-c2cnc3cc(-c4cnn(C)c4)c(O[C@H]4CCNC4)nn23)c1 [Example 17, (S)-3,4-Difluoro-N-methyl-5-(7-(1-methyl-1H-pyrazol-4-yl)-6-(pyrrolidin-3-yloxy)imidazo[1,2-b]pyridazin-3-yl)benzamide]
–	≥ 400	≥ 400	CNC(=O)c1cc(F)c(F)c(-c2cnc3cc(-c4cnn(C)c4)c(O[C@H]4CCN(C)C4)nn23)c1 [Example 16, (S)-3,4-Difluoro-N-methyl-5-(7-(1-methyl-1H-pyrazol-4-yl)-6-((1-methylpyrrolidin-3-yl)oxy)imidazo[1,2-b]pyridazin-3-yl)benzamide]
< 10	–	–	CNC(=O)c1cc(C)c(F)c(-c2cnc3cc(-c4cnn(C)c4)c(O[C@H]4CCOC4)nn23)c1 [Example 42, (S)-4-Fluoro-N,3-dimethyl-5-(7-(1-methyl-1H-pyrazol-4-yl)-6-((tetrahydrofuran-3-yl)oxy)imidazo[1,2-b]pyridazin-3-yl)benzamide]
–	10 to 100	< 10	CNC(=O)c1cc(-c2cnc3cc(-c4cnn(C)c4)c(O[C@H]4CCOC4)nn23)c(F)c(C2CC2)c1 [Example 38, (S)-3-Cyclopropyl-4-fluoro-N-methyl-5-(7-(1-methyl-1H-pyrazol-4-yl)-6-((tetrahydrofuran-3-yl)oxy)imidazo[1,2-b]pyridazin-3-yl)benzamide]
< 10	–	–	CNC(=O)c1cc(F)c(F)c(-c2cnc3cc(-c4cnn(C)c4)c(O[C@H]4CCOC4)nn23)c1 [Example 43, (S)-3,4-Difluoro-N-methyl-5-(7-(1-methyl-1H-pyrazol-4-yl)-6-((tetrahydrofuran-3-yl)oxy)imidazo[1,2-b]pyridazin-3-yl)benzamide]
–	10 to 100	< 10	CNC(=O)c1cc(F)c(F)c(-c2cnc3cc(-c4cnn(C)c4)c(O[C@H]4CCNC4=O)nn23)c1 [Example 18, (S)-3,4-Difluoro-N-methyl-5-(7-(1-methyl-1H-pyrazol-4-yl)-6-((2-oxopyrrolidin-3-yl)oxy)imidazo[1,2-b]pyridazin-3-yl)benzamide]
–	100 to 400	10 to 100	CNC(=O)c1cc(-c2cnc3cc(-c4cnn(C)c4)c(O[C@H]4CCOC4)nn23)c(F)c(N(C)C)c1 [Example 37, (S)-3-(Dimethylamino)-4-fluoro-N-methyl-5-(7-(1-methyl-1H-pyrazol-4-yl)-6-((tetrahydrofuran-3-yl)oxy)imidazo[1,2-b]pyridazin-3-yl)benzamide]
–	≥ 400	100 to 400	Cc1cc(-c2cn(C)nn2)cc(-c2cnc3cc(-c4cnn(C)c4)c(O[C@H]4CCOC4)nn23)c1F [Example 39, (S)-3-(2-Fluoro-3-methyl-5-(1-methyl-1H-1,2,3-triazol-4-yl)phenyl)-7-(1-methyl-1H-pyrazol-4-yl)-6-((tetrahydrofuran-3-yl)oxy)imidazo[1,2-b]pyridazine]
< 10	–	–	CNC(=O)c1cccc(-c2cnc3cc(-c4cnn(C)c4)c(O[C@H]4CCOC4)nn23)c1 [Example 63, (S)-N-Methyl-3-(7-(1-methyl-1H-pyrazol-4-yl)-6-((tetrahydrofuran-3-yl)oxy)imidazo[1,2-b]pyridazin-3-yl)benzamide]
